Among the data in ChEMBL document CHEMBL1131965, “Isoquinoline-6-carboxamides as potent and selective anti-human cytomegalovirus (HCMV) inhibitors” (Bioorg Med Chem Lett, 1999) are IC50 and CC50 values, retold here.

Assay [1] concerns Hs68. In words: Anti-HCMV activity in Hs 68 cell line by plaque reduction assay. It is filed as functional, cell-based. As to conditions: Homo sapiens.
In assay [2] the test system is Hs68. In words: Cytotoxicity in Hs 68 cell line by inhibition of cell proliferation. It is filed as functional. Conditions: Homo sapiens.

SMILES strings stand for the structures. In brackets after ≈: the same amount, converted by molar mass.

The IC50 is the concentration that inhibits the measured activity by half. High values mean lower potency, low ones higher potency. The compound `O=C(O)c1cc2ccncc2cn1` returned an IC50 with Hs68 [1] of 0.5 µg/mL (≈ 2.87 µM). Usually CC50 stands for the concentration at which the toxic effect on the cells reaches its halfway point. Read a low CC50 as harm at low concentration. `COc1ccccc1CNC(=O)c1ccc2ccccc2n1` had a CC50 in the assay with Hs68 [2] of 10 µg/mL (≈ 34.2 µM). In addition, in the assay on Hs68 [1], the IC50 was greater than 25 µg/mL.
